Laboratory results from patent US5215979A, “16,17-acetalsubstituted pregnane 21-oic acid derivatives” (priority 1985, dated 1993).
Where “and” joins values, the source holds several entries; their conditions need not be identical. Identical values can stand only once. Like-named read-outs stand apart in the source and are kept apart here.

Legend:
[1] = in vivo; cited from earlier work
[2] = cited from earlier work; for Unwanted GCS actions within the general circulation (in words): highest of the recommended doses for inhalation; for Safety margin (in words): inhaled GCS, highest recommended doses for inhalation
thymus = assay: Thymus weight recorded in the Sephadex model (systemic effect); assay type: in vivo, Sprague-Dawley rats; conditions: for Thymus involution % (dose mg/kg): relative to Sephadex control group
Protocol: (§1) The differentiation between glucocorticosteroid action in the treated lung region and outside this area has been tested by the following test protocol. Sprague-Dawley rats (225 g) were slightly anesthetized with ether and the glucocorticosteroid test preparation in a volume of 0.5 ml/kg was instilled into just the left lung lobe. […] Thirty minutes later, a suspension of Sephadex (5 mg/kg in a volume of 1 ml/kg) was instilled in the trachea well above the bifurcation so that the suspension reached both the left and right lung lobes. Twenty hours later the rats were killed and the left and right lung lobes were dissected out and weighed separately. Also the thymus weight was recorded. Control groups got vehicle instead of glucocorticosteroid preparation and saline instead of Sephadex suspension to determine the weight of non-drug protected Sephadex edema and the normal lung weight, respectively. For each glucocorticosteroid preparation at least 3 doses within the range 0.01-10 mg/kg and with each ≥6 parallels/dose were tested. The glucocorticosteroids were suspended in a vehicle of CMC-Na 0.75%, Tween 80 0.04%, and 0.7% NaCl ad 100%.

[3] = cited from earlier work; for Plasma half life: after absorption of inhaled GCS; for Site of inactivation (in words): after absorption
interstitial lung edema = assay: Sephadex model in the rat: lung edema after Sephadex bead instillation, glucocorticosteroid instilled in left lung lobe; assay type: in vivo, Sprague-Dawley rats; conditions: for ED50: Rattus norvegicus, read-out: ED50 left lung lobe (required glucocorticosteroid dose to reduce the edema by 50%); for Selectivity ratio ED50 right lung / ED50 left lung: instillation into left lung lobe, higher = more selective for application site
From the text: The selectivity for anti-inflammatory effect at the application site in the lung has been investigated in a model system in the rat after intrabronchial instillation of the glucocorticosteroid.
Instillation of Sephadex beads into rat lung leads to bronchial and alveolar inflammation. This provokes interstitial lung edema, which increases the lung weight and the inflammation can be graded as the increase of the lung weight compared to a vehicle-instilled control group. The lung edema formation can be counteracted by pretreatment with glucocorticosteroids, preferably the local administration as intrabronchial installation or as inhalation. Ideally, an anti-inflammatory action should be obtained only at the site of glucocorticosteroid application in the lung but not outside this area, as this in long term treatment can lead to therapy limiting systemic side effects.
as §1
For a strict local anti-inflammatory treatment of airway diseases the ideal profile of a compound is that it should counteract the inflammation in the locally treated left lung lobe, but not in the right lung half, which is anticipated to be reached by glucocorticosteroid first via the systemic circulation (after absorption from the left lung). The ratio between the required ED50 's (doses reducing the edema by 50%) in the right and left lung halves, respectively, can be used as a parameter for estimation of the selective activity for the application site. For an ideal glucocorticosteroid this selectivity ratio should be high.

[4] = compared with budesonide or BDP; cited from earlier work
[5] = intrabronchial instillation into left lung lobe 30 min before Sephadex, lungs weighed 20 h later

For `CCCC1O[C@@H]2C[C@H]3[C@@H]4CCC5=CC(=O)C=C[C@]5(C)[C@H]4[C@@H](O)C[C@]3(C)[C@]2(C(=O)CO)O1` (some centres unmarked) [Budesonide], which “Selectivity for the application within airways (in words)” value [1] is on record?
The value was “low selectivity”.

What about the “Unwanted GCS actions within the general circulation (in words)” value [2] of the same compound?
Its value is “unwanted GCS actions within the general circulation have been reported”.

What about the “Safety margin (in words)” value [2] of the same compound?
The value was “rather narrow safety margin”.

And the “Thymus involution % (dose mg/kg)” value (thymus; dose 0.3 mg/kg)?
Its value is 22%.

What about the Plasma half life [3] of the same compound?
Its Plasma half life is ≥ 2 h.

And the “Site of inactivation (in words)” value [3]?
Its value is “inactivated mainly in the liver”.

What about the ED50 (interstitial lung edema; [5]) of the same compound?
Its ED50 is 0.2 mg/kg.

What about the “Selectivity for activity in the locally treated left lung lobe (in words)” value (interstitial lung edema; compared with budesonide and FCB) of the same compound?
The value was “does not reach any selectivity for the application site in lung”.

And the “Selectivity ratio ED50 right lung / ED50 left lung” value (interstitial lung edema)?
Its value is ~ 1.5 and 1.4.

Which “Effect on thymus weight (in words)” value (thymus; dose 10 mg/kg) does the source give for `CCC[C@@H]1O[C@@H]2C[C@H]3[C@@H]4C[C@H](F)C5=CC(=O)C=C[C@]5(C)[C@@]4(F)[C@@H](O)C[C@]3(C)[C@]2(C(=O)C(=O)OC)O1` [Example 1, methyl (22R)-16α,17α-butylidenedioxy-6α, 9α-difluoro-11β-hydroxy-3,20-dioxopregna-1,4-diene-21-oate] here?
The value was “do not at all affect the thymus weight”.

And the “Thymus involution % (dose mg/kg)” value (thymus; dose 10 mg/kg)?
Its value is -3%.

What about the ED50 (interstitial lung edema; [5]) of the same compound?
The ED50 was 1.5 mg/kg.

What about the “Selectivity ratio ED50 right lung / ED50 left lung” value (interstitial lung edema) of the same compound?
The value was 6.0.

Which “Thymus involution % (dose mg/kg)” value (thymus; dose 10 mg/kg) does the source give for `CCC[C@@H]1O[C@@H]2C[C@H]3[C@@H]4C[C@H](F)C5=CC(=O)C=C[C@]5(C)[C@@]4(F)[C@@H](O)C[C@]3(C)[C@]2(C(=O)C(=O)OCC)O1` [Example 3, ethyl (22R)-16α,17α-butylidenedioxy-6α,9α-difluoro-11β-hydroxy-3, 20-dioxopregna-1,4-diene-21-oate] here?
The value was 15%.

And the ED50 (interstitial lung edema; [5])?
Its ED50 is 1.7 mg/kg.

What about the “Selectivity ratio ED50 right lung / ED50 left lung” value (interstitial lung edema) of the same compound?
Its value is 5.9.

Which results are given for `CCCOC(=O)C(=O)[C@@]12O[C@H](CCC)O[C@@H]1C[C@H]1[C@@H]3C[C@H](F)C4=CC(=O)C=C[C@]4(C)[C@@]3(F)[C@@H](O)C[C@@]12C` [Example 4, n-propyl (22R)-16α,17α-butylidenedioxy-6α,9α-difluoro-11β-hydroxy-3, 20-dioxopregna-1,4-diene-21-oate]?
Thymus involution % (dose mg/kg) (thymus; dose 10 mg/kg): 6%; ED50 (interstitial lung edema; [5]): < 1 mg/kg; Selectivity ratio ED50 right lung / ED50 left lung (interstitial lung edema): > 10

For `CCC[C@@H]1O[C@@H]2C[C@H]3[C@@H]4C[C@H](F)C5=CC(=O)C=C[C@]5(C)[C@@]4(F)[C@@H](O)C[C@]3(C)[C@]2(C(=O)C(=O)OC(C)C)O1` [Example 5, isopropyl (22R)-16α,17α-butylidenedioxy-6α,9α-difluoro-11β-hydroxy-3, 20-dioxopregna-1,4-diene-21-oate], which “Effect on thymus weight (in words)” value (thymus; dose 10 mg/kg) is on record?
The value was “do not at all affect the thymus weight”.

And the “Thymus involution % (dose mg/kg)” value (thymus; dose 10 mg/kg)?
The value was -1%.

And the ED50 (interstitial lung edema; [5])?
The ED50 was 5 mg/kg.

And the “Selectivity ratio ED50 right lung / ED50 left lung” value (interstitial lung edema)?
The value was 10.0.

With `CCCCOC(=O)C(=O)[C@H]1[C@H](C)C[C@H]2[C@@H]3C[C@H](F)C4=CC(=O)C=C[C@]4(C)[C@H]3[C@@H](O)C[C@@]21C` [FCB, fluocortin butyl ester] as the compound, how does the “Thymus involution % (dose mg/kg)” value (thymus; dose 10 mg/kg) read?
Its value is 6%.

And the “Half life time in plasma (in words)” value ([3]; compared with budesonide)?
Its value is “as long half life time in plasma as budesonide”.

And the “Potency (in words)” value [4]?
The value was “lower potency”.

What about the ED50 (interstitial lung edema; 20 h) of the same compound?
Its ED50 is 10 mg/kg.

And the “Selectivity ratio ED50 right lung / ED50 left lung” value (interstitial lung edema)?
Its value is 2-3 and 2.5.

With `CCC(=O)OCC(=O)[C@@]1(OC(=O)CC)[C@@H](C)C[C@H]2[C@@H]3CCC4=CC(=O)C=C[C@]4(C)[C@@]3(Cl)[C@@H](O)C[C@@]21C` [beclomethasone 17α, 21-dipropionate] as the compound, how does the “Unwanted GCS actions within the general circulation (in words)” value [2] read?
Its value is “unwanted GCS actions within the general circulation have been reported”.

And the “Safety margin (in words)” value [2]?
Its value is “rather narrow safety margin”.

And the Plasma half life [3]?
Its Plasma half life is ≥ 2 h.

What about the “Site of inactivation (in words)” value [3] of the same compound?
Its value is “inactivated mainly in the liver”.
